Values quoted from earlier work in patent publication US20120141434A1, “Methods for Selecting Expanded Stem Cell Populations” (Gamida Cell Ltd., priority 2009, published 2012).

Experiments:
[1] = system: cord blood-derived progenitor cells; settings: three-week treatment of cord blood cultures supplemented with early acting cytokines
[2] = system: NOD/SCID mice; settings: TEPA treated cultures compared to untreated cultures

Structure (SMILES): NCCNCCNCCNCCN [TEPA, tetraethylenepentamine]
- ex vivo expansion of CD34+ cells [1]: prolonged and extensive
- percentages of early progenitors (CD34+CD38−, CD34+CD38−Lin-) [1]: higher
- engraftment potential in NOD/SCID mice [2]: increased
